Measurements reported in publication PMC7672604, “Design, Synthesis, Molecular Docking, Antiapoptotic and Caspase-3 Inhibition of New 1,2,3-Triazole/Bis-2(1H)-Quinolinone Hybrids” (Molecules, 2020).

Assays:
testis of I/R rats [1] = assay: TNFα in testis of I/R rats (ELISA); assay type: in vivo; conditions: i.p. 1 h before ischemia, dose equivalent to 30 mg NAC, mean ± S.E.M, n=6
Experimental: (§1) This section describes the methods used in the investigation of the antiapoptotic effect of the novel compounds 6a–g then supported by further histological and molecular docking studies. The antiapoptotic effect of 6a–g was evaluated through evaluation of decreasing tissue damage induced by I/R in the testis of rats in a dose equivalent to 30 mg N-acetylcysteine (NAC) as an antiapoptotic reference. The rats were subdivided into sham, I/R, NAC and treated with tested compounds groups, each group comprises of 6 rats (weighing 140–150 g). The targeted compounds 6a–g were administrated intra-peritoneal (i.p.) an hour before ischemia, which lasted for (0.5 h) then reperfusion (1 h) followed by cutting the organ (Figure 5). Different biomarkers concentrations were measured in serum to detect testis injury due to ischemia/reperfusion (I/R).
(§2) It was reported that excessive apoptosis in the testis could damage the Leydig cells and apparent decline in serum testosterone levels. Furthermore, excessive apoptosis of Leydig cells results in decreased testosterone. The assays of the apoptotic biomarkers (testicular testosterone and TNFα) were done in comparison with the sham and NAC treated group and the results were outlined in Table S4 (Supplementary Materials).
(§3) TNF-α was measured by ELISA kit (Elabscience, Houston, TX, USA). Caspase-3 was measured by ELISA kit Cusabio, Houston, TX, USA (See Supplementary Materials). Testosterone concentration in testicular samples was determined by the ELISA kit (“DRG”, Marburg, Germany) (See Supplementary Materials).

caspase-3 = assay: Caspase-3 level in serum of testicular I/R rats (ELISA); assay type: in vivo; conditions: mean ± S.E.M, n=6
Experimental: as §1
Caspases can delay apoptosis, implicating a potential role in drug screening efforts. Therefore, we studied the mechanism of the caspase-3 inhibition activity. Caspase-3 was assayed in the serum of rats treated with 6a–g in comparison with sham and the NAC treated group, as shown in Table S5 (Supplementary Materials).
as §3

testis of I/R rats [2] = assay: Testicular TAC in testis of I/R rats; assay type: in vivo; conditions: i.p. 1 h before ischemia, dose equivalent to 30 mg NAC, mean ± S.E.M, n=6
Experimental: as §1
(§4) During the long testicular torsion, oxidation damage affects the testis by the production of the reactive oxygen species (ROS). Excessive generation of the ROS interacts with lipids, proteins, and nucleic acids, which has an adverse effect on cell function and damage. The testis has high cell metabolism such that excessive ROS production weakens antioxidant capacity. Malondialdehyde (MDA) is the end product of lipid peroxidation and increased MDA level has an adverse effect on sperm fertility. Furthermore, total antioxidant capacity (TAC) is the measure of the number of free radicals scavenged by a test solution, being used to evaluate the antioxidant capacity of biological samples [55]. The data collected in Table S3 (Supplementary Materials) have identified that there was a significant increase in testicular MDA with a significant decrease in testicular TAC in the I/R group as well as compounds 6d and 6f when compared to sham control and NAC groups. These findings indicate that both 6d and 6f are the worst antiapoptotic compounds compound amongst all the synthesized compounds.
TAC was assessed by the colorimetric technique using commercial kits (El-Minia, Egypt) (See Supplementary Materials). Testicular MDA, an index of lipid peroxidation, was determined by using 1,1,3,3-tetramethoxypropane as standard (See Supplementary Materials). […]
1.3.Determination of Total Antioxidant Capacity (Testicular tissue)
Free radicals or reactive oxygen species (ROS) are produced during biochemical redox reactions as part
of normal physiological cell metabolism (protection from infectious organisms) and as a response to
environmental factors such as UV light, cigarette smoke, environmental pollutants, and g-radiation. Once
formed, ROS attack cellular components causing damage to lipids, proteins, and DNA which can initiate
Antioxidants in the sample reduce dark blue-green colored ABTS radical to colorless reduced ABTS
form. The change of absorbance at 660 nm is related with total antioxidant level of the sample. The assay
is calibrated with a stable antioxidant standard solution which is traditionally named as Trolox
Equivalent that is a vitamin E analog.
The determination of the antioxidative capacity is performed by the reaction of antioxidants in the
sample with a defined amount of exogenously provide hydrogen peroxide (H2O2) The antioxidants in the
sample eliminate a certain amount of the provided hydrogen peroxide. The residual H2O2 is determined
(1 picture or pasted object on this page, not shown here)
colorimetrically by an enzymatic reaction which involves the conversion of 3,5,dichloro–2–hydroxy
benzensulphonate to a colored product.
* Dilute R11000 times immediately before use (10 μl R1 + 10 ml d. Water mix Discard after use.
*Working Reagent: mix equal volumes of R2 and R3 immediately before use.
*Dilute sample if necessary
Total Antioxidant concentration […]

testis of I/R rats [3] = assay: Testicular testosterone in testis of I/R rats (ELISA); assay type: in vivo; parameters: unit not given here; conditions: i.p. 1 h before ischemia, dose equivalent to 30 mg NAC, mean ± S.E.M, n=6
Experimental: as §1, §2, §3
1.2.Determination of serum testosterone using ELISA kit
This ELISA kit uses the Competitive-ELISA principle. The micro ELISA plate provided in this kit has been pre-coated with T. During the reaction, T in the sample or standard competes with a fixed amount of T on the solid phase supporter for sites on the Biotinylated Detection Ab specific to T. Excess conjugate and unbound sample or standard are washed from the plate, and Avidin conjugated to Horseradish Peroxidase (HRP) are added to each microplate well and incubated. Then a TMB substrate solution is added to each well. The enzyme-substrate reaction is terminated by the addition of stop solution and the color change is measured spectrophotometrically at a wavelength of 450 nm ± 2 nm. The concentration of T in the samples is then determined by comparing the OD of the samples to the standard […]
Serum: Allow samples to clot for 2 hours at room temperature or overnight at 4℃ before centrifugation for 20 min at 1000×g at 2-8℃. Collect the supernatant to carry out the assay. Blood collection tubes should be disposable and be non-endotoxin. […]
1. Bring all reagents to room temperature (18~25℃) before use. Follow the Microplate reader manual for set-up and preheat it for 15 min before OD measurement.
2. Wash Buffer: Dilute 30 mL of Concentrated Wash Buffer with 720 mL of deionized or distilled water to prepare 750 mL of Wash Buffer. Note: if crystals have formed in the concentrate, warm it in a 40℃ water-bath and mix it gently until the crystals have completely dissolved.
3. Standard working solution: Centrifuge the standard at 10,000×g for 1min. Add 1.0mL of Reference Standard &Sample Diluent, let it stand for 10min and invert it gently several times. After it dissolves fully, mix it thoroughly with a pipette. This reconstitution produces a working solution of 20 ng/mL. Then make serial dilutions as needed. The recommended dilution gradient is as […]
Dilution method: Take 7 EP tubes, add 500uL of Reference Standard & Sample Diluent to each tube. Pipette 500uL of the 20 ng/mL working solution to the first tube and mix up to produce a 10 ng/mL working solution. Pipette 500uL of the solution from the former tube to the latter one according to this step. The illustration below is for reference. Note: the last tube is regarded as a blank. Don’t pipette solution into it from the former tube.

testis of I/R rats [4] = assay: Testicular MDA in testis of I/R rats; assay type: in vivo; conditions: i.p. 1 h before ischemia, dose equivalent to 30 mg NAC, mean ± S.E.M, n=6
Experimental: as §1, §4
TAC was assessed by the colorimetric technique using commercial kits (El-Minia, Egypt) (See Supplementary Materials). Testicular MDA, an index of lipid peroxidation, was determined by using 1,1,3,3-tetramethoxypropane as standard (See Supplementary Materials).

Work on `Cc1ccc2[nH]c(=O)cc(-n3cc(COc4cc(=O)[nH]c5ccccc45)nn3)c2c1` [6b, 6-Methyl-4-(4-(((2-oxo-1,2-dihydroquinolin-4-yl)oxy)methyl)-1H-1,2,3-triazol-1-yl)quinolin-2(1H)-one] yielded a melting point of 298 °C, a TNF-α (testis of I/R rats [1]) of 107.90 ± 2.96 pg/mL and a Caspase-3 level (caspase-3) of 2.94 ± 0.28 ng/mL. The “Testicular TAC” value (testis of I/R rats [2]) was 4.62±0.33 mmol/g tissue, the Testicular testosterone (testis of I/R rats [3]) was 5.07±0.45 and the “Testicular MDA” value (testis of I/R rats [4]) was 61.84±4.77 nmol/g tissue.
Compound `O=c1cc(OCc2cn(-c3cc(=O)[nH]c4ccccc34)nn2)c2ccccc2[nH]1` [6a, 4-((1-(2-Oxo-1,2-dihydroquinolin-4-yl)-1H-1,2,3-triazol-4-yl)methoxy)quinolin-2(1H)-one] has a melting point of 300 to 302 °C, a TNF-α (testis of I/R rats [1]) of 106.40 ± 4.44 pg/mL and a Caspase-3 level (caspase-3) of 2.66 ± 0.21 ng/mL. For the same compound, the “Testicular TAC” value (testis of I/R rats [2]) was 5.48±0.41 mmol/g tissue, the Testicular testosterone (testis of I/R rats [3]) was 4.93±0.38 and the “Testicular MDA” value (testis of I/R rats [4]) was 62.38±4.23 nmol/g tissue.
